The NIST ThermoML archive (doi:10.1021/je8009418)

Details: Liquid; for speed of sound: Pulse-echo method; for mass density: Vibrating tube method

OC1CCCC1 [cyclopentanol]
Details | mass density [kg/m3] | speed of sound [m/s]
292.85 K, 15200 kPa | – | 1519.5
292.85 K, 30390 kPa | – | 1576.3
292.85 K, 45590 kPa | – | 1629.1
292.85 K, 60790 kPa | – | 1677.8
292.85 K, 75990 kPa | – | 1723.9
292.85 K, 91180 kPa | – | 1767.2
292.85 K, 101320 kPa | – | 1795
292.86 K, 100 kPa | – | 1454.4
293.15 K, 101.33 kPa | 946.792 | –
298.14 K, 15200 kPa | – | 1500.4
298.14 K, 30390 kPa | – | 1557.8
298.14 K, 45590 kPa | – | 1611.5
298.14 K, 60790 kPa | – | 1661
298.14 K, 75990 kPa | – | 1707.2
298.14 K, 91180 kPa | – | 1751.2
298.14 K, 101320 kPa | – | 1779.3
298.15 K, 101.33 kPa | 942.856 | 1435.1
298.17 K, 100 kPa | – | 1435
303.12 K, 15200 kPa | – | 1482.2
303.12 K, 30390 kPa | – | 1540.4
303.12 K, 45590 kPa | – | 1595.1
303.12 K, 60790 kPa | – | 1645.6
303.12 K, 75990 kPa | – | 1692.6
303.12 K, 91180 kPa | – | 1737.2
303.12 K, 101320 kPa | – | 1765.5
303.15 K, 100 kPa | – | 1416.9
303.16 K, 101.33 kPa | 938.874 | –
308.11 K, 15200 kPa | – | 1464.8
308.11 K, 30390 kPa | – | 1524.5
308.11 K, 45590 kPa | – | 1579.4
308.11 K, 60790 kPa | – | 1630.6
308.11 K, 75990 kPa | – | 1678
308.11 K, 101320 kPa | – | 1751.6
308.12 K, 91180 kPa | – | 1723
308.13 K, 100 kPa | – | 1398.7
308.15 K, 101.33 kPa | 934.843 | –
313.09 K, 15200 kPa | – | 1447.6
313.09 K, 30390 kPa | – | 1508.3
313.09 K, 45590 kPa | – | 1564
313.09 K, 60790 kPa | – | 1616.1
313.09 K, 75990 kPa | – | 1664.1
313.09 K, 91180 kPa | – | 1709.5
313.09 K, 101320 kPa | – | 1738.6
313.12 K, 100 kPa | – | 1380.6
313.15 K, 101.33 kPa | 930.754 | –
318.15 K, 101.33 kPa | 926.613 | –
318.19 K, 15200 kPa | – | 1430.8
318.19 K, 45590 kPa | – | 1548.6
318.19 K, 60790 kPa | – | 1601.4
318.19 K, 75990 kPa | – | 1650.3
318.19 K, 101320 kPa | – | 1725.3
318.2 K, 30390 kPa | – | 1492.4
318.2 K, 91180 kPa | – | 1695.8
318.29 K, 100 kPa | – | 1361.8

CCCCCO [pentan-1-ol]
Details | mass density [kg/m3] | speed of sound [m/s]
292.81 K, 100 kPa | – | 1293.9
292.88 K, 76010 kPa | – | 1611.2
292.88 K, 91210 kPa | – | 1660
292.88 K, 101330 kPa | – | 1691.4
292.91 K, 45590 kPa | – | 1501.6
292.91 K, 60810 kPa | – | 1558.3
292.95 K, 15200 kPa | – | 1371.5
292.96 K, 30400 kPa | – | 1439.7
293.15 K, 101.33 kPa | 814.5 | –
297.93 K, 30400 kPa | – | 1424.8
297.93 K, 45600 kPa | – | 1487.1
297.93 K, 60800 kPa | – | 1544.3
297.93 K, 75990 kPa | – | 1597.6
297.93 K, 91190 kPa | – | 1647.3
297.93 K, 101340 kPa | – | 1678.7
297.94 K, 15200 kPa | – | 1355.5
298.15 K, 101.33 kPa | 810.84 | 1275.2
298.18 K, 100 kPa | – | 1275.1
303.05 K, 45600 kPa | – | 1472.8
303.06 K, 15200 kPa | – | 1339.3
303.06 K, 30410 kPa | – | 1409.7
303.06 K, 91180 kPa | – | 1634.6
303.06 K, 101330 kPa | – | 1666.3
303.1 K, 60790 kPa | – | 1530.6
303.1 K, 76000 kPa | – | 1584.1
303.15 K, 100 kPa | – | 1258
303.15 K, 101.33 kPa | 807.155 | –
308.04 K, 45600 kPa | – | 1459
308.05 K, 76000 kPa | – | 1571.6
308.06 K, 60800 kPa | – | 1517.5
308.06 K, 91210 kPa | – | 1622.5
308.06 K, 101330 kPa | – | 1654.2
308.08 K, 15200 kPa | – | 1323.5
308.08 K, 30400 kPa | – | 1394.8
308.13 K, 100 kPa | – | 1240.9
308.15 K, 101.33 kPa | 803.442 | –
313.02 K, 101340 kPa | – | 1642.9
313.03 K, 30400 kPa | – | 1380.7
313.03 K, 60790 kPa | – | 1504.8
313.03 K, 75990 kPa | – | 1559.2
313.03 K, 91190 kPa | – | 1610.7
313.04 K, 15210 kPa | – | 1308.5
313.05 K, 45600 kPa | – | 1445.5
313.11 K, 100 kPa | – | 1224.1
313.15 K, 101.33 kPa | 799.705 | –
318.15 K, 101.33 kPa | 795.912 | –
318.49 K, 76000 kPa | – | 1546.4
318.49 K, 91200 kPa | – | 1598.1
318.5 K, 60800 kPa | – | 1491.2
318.51 K, 45590 kPa | – | 1431.3
318.51 K, 101330 kPa | – | 1630.8
318.52 K, 15200 kPa | – | 1292
318.52 K, 30400 kPa | – | 1365.4
318.68 K, 100 kPa | – | 1205.5

CCC(C)(C)O [2-methylbutan-2-ol]
Details | mass density [kg/m3] | speed of sound [m/s]
292.86 K, 15200 kPa | – | 1290.8
292.86 K, 30390 kPa | – | 1369.7
292.86 K, 45590 kPa | – | 1440.9
292.86 K, 60790 kPa | – | 1506
292.86 K, 75990 kPa | – | 1566.1
292.86 K, 91180 kPa | – | 1623.1
292.86 K, 101320 kPa | – | 1658.5
292.9 K, 100 kPa | – | 1196.7
293.15 K, 101.33 kPa | 808.891 | –
298.15 K, 101.33 kPa | 804.3 | 1177.8
298.15 K, 15200 kPa | – | 1274.2
298.15 K, 30390 kPa | – | 1354.4
298.15 K, 45590 kPa | – | 1426.3
298.15 K, 60790 kPa | – | 1491.5
298.15 K, 75990 kPa | – | 1551.9
298.15 K, 91180 kPa | – | 1608.7
298.15 K, 101320 kPa | – | 1644.4
298.17 K, 100 kPa | – | 1177.8
303.13 K, 30390 kPa | – | 1339.7
303.13 K, 45590 kPa | – | 1412.3
303.13 K, 91180 kPa | – | 1595.6
303.13 K, 101320 kPa | – | 1631.4
303.14 K, 15200 kPa | – | 1258.5
303.14 K, 60790 kPa | – | 1478.1
303.14 K, 75990 kPa | – | 1538.6
303.15 K, 100 kPa | – | 1159.8
303.16 K, 101.33 kPa | 799.66 | –
308.12 K, 100 kPa | – | 1141.9
308.12 K, 15200 kPa | – | 1242.6
308.12 K, 30390 kPa | – | 1324.9
308.12 K, 45590 kPa | – | 1398
308.12 K, 60790 kPa | – | 1464.7
308.12 K, 75990 kPa | – | 1525.6
308.12 K, 91180 kPa | – | 1582.6
308.12 K, 101320 kPa | – | 1619
308.16 K, 101.33 kPa | 794.954 | –
313.1 K, 100 kPa | – | 1124
313.1 K, 45590 kPa | – | 1384.1
313.1 K, 60790 kPa | – | 1451.2
313.1 K, 75990 kPa | – | 1512.8
313.1 K, 91180 kPa | – | 1569.9
313.11 K, 15200 kPa | – | 1226.6
313.11 K, 30390 kPa | – | 1310.1
313.11 K, 101320 kPa | – | 1606.2
313.15 K, 101.33 kPa | 790.176 | –
318.15 K, 101.33 kPa | 785.312 | –
318.18 K, 15200 kPa | – | 1210.4
318.18 K, 60790 kPa | – | 1437.9
318.18 K, 75990 kPa | – | 1499.8
318.18 K, 101320 kPa | – | 1593.9
318.19 K, 30390 kPa | – | 1295.2
318.19 K, 45590 kPa | – | 1370.1
318.19 K, 91180 kPa | – | 1557.2
318.29 K, 100 kPa | – | 1105.3
